Test results reported in patent publication US6355799B1, “Substituted benzene compounds, process for their preparation, and herbicidal and defoliant compositions containing them” (ISK Americas Incorporated, priority 1997, dated 2002).

Tests used:
[1] = tested on: field corn (Zea mays L., var. Dekalb 535, CORN); assay: Post-emerge test, crop safety; type: in vivo; settings: post-emerge, crop damage rating 0-100 at 14 days after application
How it was run: (§1)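 Herbicidal damage is scored 0 (none) to 100 (complete plant death) two weeks after a simulated field spray. Rates span 15–1000 g ai/ha, delivered in acetone at 187 l/ha. For post-emergence treatments, plants have 2–3 leaves and the spray carries 0.25% v/v non-ionic surfactant.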

[2] = tested on: upland rice (Oryza sp., var. Tebonnet, RICE); assay: Post-emerge test, crop safety; type: in vivo; settings: post-emerge, crop damage rating 0-100 at 14 days after application
How it was run: as §1

[3] = tested on: soybean (Glycine max L., var. Pella 86, SOY); assay: Post-emerge test, crop safety; type: in vivo; settings: crop damage rating 0-100 at 14 days after application
How it was run: as §1

[4] = tested on: redroot pigweed (Amaranthus retroflexus, AMARE); assay: Pre-emerge test, greenhouse herbicide activity screening; type: in vivo; settings: pre-emerge, phytotoxicity rating 0-100 at 14 days after application
How it was run: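 Plants grown in 10 cm pots of sandy loam mix received acetone-dissolved compounds through a moving flat-fan nozzle. Doses ranged from 15 to 1000 g ai/ha. Pre-emerge pots were seeded one day earlier, post-emerge pots 8–21 days earlier. Fourteen days on, each pot was graded 0–100 for damage.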

[5] = tested on: field corn (Zea mays L., var. Dekalb 535, CORN); assay: Pre-emerge test, crop safety; type: in vivo; settings: crop damage, pre-emerge, phytotoxicity rating 0-100 at 14 days after application
How it was run: (§2)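 Visual ratings on a 0-100 scale (0 no damage, 100 all plants dead) were taken at 14 days after treatment. Rates of 15-1000 g ai/ha in acetone, 187 l/ha, were sprayed onto soil one day after planting (pre-emerge) or onto 2-3 leaf plants with 0.25% v/v surfactant (post-emerge).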

[6] = tested on: upland rice (Oryza sp., var. Tebonnet, RICE); assay: Pre-emerge test, crop safety; type: in vivo; settings: crop damage, pre-emerge, phytotoxicity rating 0-100 at 14 days after application
How it was run: as §2

[7] = tested on: soybean (Glycine max L., var. Pella 86, SOY); assay: Pre-emerge test, crop safety; type: in vivo; settings: crop damage, pre-emerge, phytotoxicity rating 0-100 at 14 days after application
How it was run: as §2

[8] = tested on: johnsongrass (Sorghum halepense, SORHA); assay: Post-emerge test, greenhouse herbicide activity screening; type: in vivo; settings: post-emerge, phytotoxicity rating 0-100 at 14 days after application
How it was run: (§3)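 Applied at 15–1000 g ai/ha from acetone in 187 l/ha spray volume. Post-emergence applications included 0.25% v/v non-ionic surfactant and reached plants sown 8–21 days before. Pre-emergence applications were incorporated by surface watering. Efficacy or crop damage was rated on a 0–100 scale after 14 days.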

[9] = tested on: sicklepod (Cassia obtusifolia, CASOB); assay: as above; type: in vivo; settings: post-emerge, phytotoxicity rating 0-100 at 14 days after application
How it was run: as §3

[10] = tested on: lambsquarters (Chenopodium album, CHEAL); assay: as above; type: in vivo; settings: post-emerge, phytotoxicity rating 0-100 at 14 days after application
How it was run: as §3

[11] = tested on: green foxtail (Setaria viridis, SETVI); assay: as above; type: in vivo; settings: post-emerge, phytotoxicity rating 0-100 at 14 days after application
How it was run: as §3

[12] = tested on: redroot pigweed (Amaranthus retroflexus, AMARE); assay: as above; type: in vivo; settings: post-emerge, phytotoxicity rating 0-100 at 14 days after application
How it was run: as §3

[13] = tested on: velvetleaf (Abutilon theophrasti, ABUTH); assay: as above; type: in vivo; settings: post-emerge, phytotoxicity rating 0-100 at 14 days after application
How it was run: as §3

[14] = tested on: ivyleaf morningglory (Ipomoea hederacea, IPOHE); assay: as above; type: in vivo; settings: post-emerge, phytotoxicity rating 0-100 at 14 days after application
How it was run: as §3

[15] = tested on: barnyardgrass (Echinochloa crus-galli, ECHCG); assay: as above; type: in vivo; settings: post-emerge, phytotoxicity rating 0-100 at 14 days after application
How it was run: as §3

[16] = tested on: large crabgrass (Digitaria sanguinalis, DIGSA); assay: as above; type: in vivo; settings: post-emerge, phytotoxicity rating 0-100 at 14 days after application
How it was run: as §3

[17] = tested on: johnsongrass (Sorghum halepense, SORHA); assay: Pre-emerge test, greenhouse herbicide activity screening; type: in vivo; settings: pre-emerge, phytotoxicity rating 0-100 at 14 days after application
How it was run: as §1

[18] = tested on: sicklepod (Cassia obtusifolia, CASOB); assay: as above; type: in vivo; settings: pre-emerge, phytotoxicity rating 0-100 at 14 days after application
How it was run: as §1

[19] = tested on: lambsquarters (Chenopodium album, CHEAL); assay: as above; type: in vivo; settings: pre-emerge, phytotoxicity rating 0-100 at 14 days after application
How it was run: as §1

[20] = tested on: green foxtail (Setaria viridis, SETVI); assay: as above; type: in vivo; settings: pre-emerge, phytotoxicity rating 0-100 at 14 days after application
How it was run: as §1

[21] = tested on: velvetleaf (Abutilon theophrasti, ABUTH); assay: as above; type: in vivo; settings: pre-emerge, phytotoxicity rating 0-100 at 14 days after application
How it was run: as §1

[22] = tested on: ivyleaf morningglory (Ipomoea hederacea, IPOHE); assay: as above; type: in vivo; settings: pre-emerge, phytotoxicity rating 0-100 at 14 days after application
How it was run: as §1

[23] = tested on: barnyardgrass (Echinochloa crus-galli, ECHCG); assay: as above; type: in vivo; settings: pre-emerge, phytotoxicity rating 0-100 at 14 days after application
How it was run: as §1

[24] = tested on: large crabgrass (Digitaria sanguinalis, DIGSA); assay: as above; type: in vivo; settings: pre-emerge, phytotoxicity rating 0-100 at 14 days after application
How it was run: as §1

## COc1c(Cl)cc(F)c(-n2ncc(C(F)(F)F)cc2=O)c1N [Compound 11-4, 2-(2-amino-4-chloro-6-fluoro-3-methoxyphenyl)-5-trifluoromethylpyridazin-3-one]
other
  melting point: 156 to 157 °C

## C#CCOc1c(Cl)cc(F)c(-n2nnn(CCCF)c2=O)c1N [Compound 5-17, 1-(2-amino-4-chloro-6-fluoro-3-propargyloxyphenyl)-4-(3-fluoroproyl)-1,4-dihydro-5-oxo-5H-tetrazole]
[1]; 63 g ai/ha
  Post-emerge Herbicidal Activity CORN: 0
[1]; 250 g ai/ha
  Post-emerge Herbicidal Activity CORN: 10
[2]; 63 g ai/ha
  Post-emerge Herbicidal Activity RICE: 10
[2]; 250 g ai/ha
  Post-emerge Herbicidal Activity RICE: 50
[3]; 63 g ai/ha
  Post-emerge Herbicidal Activity SOY: 15
[3]; 250 g ai/ha
  Post-emerge Herbicidal Activity SOY: 70
[4]; rate 63 g ai/ha
  Pre-emerge Herbicidal Activity AMARE: 30
[4]; rate 250 g ai/ha
  Pre-emerge Herbicidal Activity AMARE: 100
[5]; rate 63 g ai/ha
  Pre-emerge Herbicidal Activity CORN: 0
[5]; rate 250 g ai/ha
  Pre-emerge Herbicidal Activity CORN: 0
[6]; rate 63 g ai/ha
  Pre-emerge Herbicidal Activity RICE: 20
[6]; rate 250 g ai/ha
  Pre-emerge Herbicidal Activity RICE: 20
[7]; rate 63 g ai/ha
  Pre-emerge Herbicidal Activity SOY: 0
[7]; rate 250 g ai/ha
  Pre-emerge Herbicidal Activity SOY: 0
[8]; 63 g ai/ha
  Post-emerge Herbicidal Activity SORHA: 0
[8]; 250 g ai/ha
  Post-emerge Herbicidal Activity SORHA: 10
[9]; 63 g ai/ha
  Post-emerge Herbicidal Activity CASOB: 0
[9]; 250 g ai/ha
  Post-emerge Herbicidal Activity CASOB: 30
[10]; 63 g ai/ha
  Post-emerge Herbicidal Activity CHEAL: 20
[10]; 250 g ai/ha
  Post-emerge Herbicidal Activity CHEAL: 60
[11]; 63 g ai/ha
  Post-emerge Herbicidal Activity SETVI: 0
[11]; 250 g ai/ha
  Post-emerge Herbicidal Activity SETVI: 80
[12]; 63 g ai/ha
  Post-emerge Herbicidal Activity AMARE: 0
[12]; 250 g ai/ha
  Post-emerge Herbicidal Activity AMARE: 30
[13]; 63 g ai/ha
  Post-emerge Herbicidal Activity ABUTH: 90
[13]; 250 g ai/ha
  Post-emerge Herbicidal Activity ABUTH: 100
[14]; 63 g ai/ha
  Post-emerge Herbicidal Activity IPOHE: 30
[14]; 250 g ai/ha
  Post-emerge Herbicidal Activity IPOHE: 40
[15]; 63 g ai/ha
  Post-emerge Herbicidal Activity ECHCG: 0
[15]; 250 g ai/ha
  Post-emerge Herbicidal Activity ECHCG: 20
[16]; 63 g ai/ha
  Post-emerge Herbicidal Activity DIGSA: 0
[16]; 250 g ai/ha
  Post-emerge Herbicidal Activity DIGSA: 0
[17]; rate 63 g ai/ha
  Pre-emerge Herbicidal Activity SORHA: 40
[17]; rate 250 g ai/ha
  Pre-emerge Herbicidal Activity SORHA: 70
[18]; rate 63 g ai/ha
  Pre-emerge Herbicidal Activity CASOB: 0
[18]; rate 250 g ai/ha
  Pre-emerge Herbicidal Activity CASOB: 30
[19]; rate 63 g ai/ha
  Pre-emerge Herbicidal Activity CHEAL: 70
[19]; rate 250 g ai/ha
  Pre-emerge Herbicidal Activity CHEAL: 100
[20]; rate 63 g ai/ha
  Pre-emerge Herbicidal Activity SETVI: 95
[20]; rate 250 g ai/ha
  Pre-emerge Herbicidal Activity SETVI: 100
[21]; rate 63 g ai/ha
  Pre-emerge Herbicidal Activity ABUTH: 40
[21]; rate 250 g ai/ha
  Pre-emerge Herbicidal Activity ABUTH: 100
[22]; rate 63 g ai/ha
  Pre-emerge Herbicidal Activity IPOHE: 0
[22]; rate 250 g ai/ha
  Pre-emerge Herbicidal Activity IPOHE: 0
[23]; rate 63 g ai/ha
  Pre-emerge Herbicidal Activity ECHCG: 0
[23]; rate 250 g ai/ha
  Pre-emerge Herbicidal Activity ECHCG: 40
[24]; rate 63 g ai/ha
  Pre-emerge Herbicidal Activity DIGSA: 30
[24]; rate 250 g ai/ha
  Pre-emerge Herbicidal Activity DIGSA: 50
